# Experimental data published in ChEMBL document CHEMBL6182886, “The Liebeskind-Srogl cross-coupling reaction towards the synthesis of biologically active compounds” (Eur J Med Chem, 2025).
# How the values were obtained:
# Cannabinoid receptor 1 = Cannabinoid receptor 1 (Rattus norvegicus, UniProt P20272); assay: Binding affinity to rat brain CB1 receptor assessed as inhibition constant; type: tissue-based
# Cannabinoid receptor 2 = Cannabinoid receptor 2 (Mus musculus, UniProt P47936); assay: Binding affinity to mouse CB2 receptor extracted from HEK293 cell membrane assessed as inhibition constant; type: cell membranes
# Chain of Cannabinoid receptor 2 (P47936 whole entry): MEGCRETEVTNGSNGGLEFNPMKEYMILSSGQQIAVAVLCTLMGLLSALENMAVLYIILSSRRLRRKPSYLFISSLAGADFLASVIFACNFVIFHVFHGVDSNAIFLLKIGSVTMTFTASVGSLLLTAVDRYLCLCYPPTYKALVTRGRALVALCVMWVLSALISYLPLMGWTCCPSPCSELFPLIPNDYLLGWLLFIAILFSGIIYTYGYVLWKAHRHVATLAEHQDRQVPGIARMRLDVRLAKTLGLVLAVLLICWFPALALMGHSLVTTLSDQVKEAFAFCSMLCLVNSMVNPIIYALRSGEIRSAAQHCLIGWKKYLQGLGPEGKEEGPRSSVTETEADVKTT
# KB = assay: Cytotoxicity against human KB cells; type: functional, cell-based
# L1210 = assay: Cytotoxicity against mouse L1210 cells; type: functional, cell-based
# [1] = Cytotoxicity against human HOG.R5 cells; type: functional, cell-based
# [2] = system: Human immunodeficiency virus 1; assay: Antiviral activity against HIV-1 infected in human HOG.R5 cells assessed as reduction in viral growth; type: functional, organism-based; settings: Human immunodeficiency virus 1, HOG.R5
# P815 = assay: Anticancer activity against mouse P815 cells assessed as reduction in cell viability measured for 48 hrs by MTT assay; type: functional, cell-based; settings: P815, 48 h
# [3] = Anticancer activity against human HEP cells assessed as reduction in cell viability measured for 48 hrs by MTT assay; type: toxicity, cell-based
# Chain of Cannabinoid receptor 1 (P20272 whole entry): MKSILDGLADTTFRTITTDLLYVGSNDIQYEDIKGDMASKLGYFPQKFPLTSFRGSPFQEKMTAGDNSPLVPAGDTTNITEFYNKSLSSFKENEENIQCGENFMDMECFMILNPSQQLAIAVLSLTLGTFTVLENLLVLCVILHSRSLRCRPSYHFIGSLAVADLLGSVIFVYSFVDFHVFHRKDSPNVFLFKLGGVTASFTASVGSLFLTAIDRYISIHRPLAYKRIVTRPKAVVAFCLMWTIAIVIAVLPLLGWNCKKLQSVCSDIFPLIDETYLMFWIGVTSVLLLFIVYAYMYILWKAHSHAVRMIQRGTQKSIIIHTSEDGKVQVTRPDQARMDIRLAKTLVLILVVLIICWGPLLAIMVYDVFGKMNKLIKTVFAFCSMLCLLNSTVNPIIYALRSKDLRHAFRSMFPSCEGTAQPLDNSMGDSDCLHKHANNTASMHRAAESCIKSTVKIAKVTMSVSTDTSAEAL
smiles,measurement,setting,value
COCOc1cc(C2=NCCC2)cc2c1[C@@H]1C[C@H](OCOC)CC[C@H]1C(C)(C)O2,Ki,Cannabinoid receptor 1,0.0163 µM
same,Ki,Cannabinoid receptor 2,0.0123 µM
CCCCCCC1(c2cc(O)c3c(c2)OC(C)(C)[C@@H]2CC[C@@H](O)C[C@@H]32)CN(C)C1,Ki,Cannabinoid receptor 1,0.0192 µM
same,Ki,Cannabinoid receptor 2,0.0213 µM
C=C1/C=C(\C)[C@@H](C)[C@@H](O)CC(=O)[C@@H](C)CC(=O)C[C@H]2CC[C@@H](O2)[C@@H](/C=C/C=C(C)C)OC(=O)C[C@@H]2O[C@H](C[C@H]2C)[C@H](O)[C@@H]1O,IC50,KB,3.2 mg/L
same,IC50,L1210,1.5 mg/L
CC(C)=CCC/C(C)=C/[C@H]1C(=O)C(C)=C[C@@H]1O,IC50,[1],13.2 mg/L
same,IC50,[2],5 mg/L
CC(C)=CCC/C(C)=C\[C@H]1C(=O)C(C)=C[C@@H]1O,IC50,[1],5.7 mg/L
same,IC50,[2],2 mg/L
CCCCCCCCCCCCCC[C@@H]1CCCN1C,IC50,P815,10 mg/L
same,IC50,[3],5 mg/L
C=C1/C=C(\C)[C@@H](C)[C@@H](O)CC(=O)[C@@H](C)CC(=O)C[C@H]2CC[C@@H](O2)[C@@H](/C=C/C=C(\C)[C@@H](O)C(=C)CCCC)OC(=O)C[C@@H]2O[C@H](C[C@H]2C)[C@H](O)[C@@H]1O,IC50,KB,0.0046 mg/L
same,IC50,L1210,0.0058 mg/L
